Test results published in patent publication US20210069295A1, “GALECTINS CONTROL MTOR IN RESPONSE TO ENDOMEMBRANE DAMAGE AND PROVIDE A MECHANISM AND TARGET FOR THE TREATMENT OF AUTOPHAGY-RELATED DISEASES” (STC. UNM, priority 2017, published 2021).

Assays:
AMPKα = test: Co-IP of FLAG-tagged galectins with endogenous AMPKα in HEK293T cells; assay type: binding; details: HEK293T overexpressing FLAG-tagged galectins
TAK1 = biological target: T1, TAK1 (Homo sapiens, UniProt O43318); test: Co-IP of FLAG-tagged galectins with GFP-tagged TAK1 in HEK293T cells; assay type: binding; details: HEK293T overexpressing FLAG-tagged galectins and GFP-TAK1
T1 sequence (O43318 1-606): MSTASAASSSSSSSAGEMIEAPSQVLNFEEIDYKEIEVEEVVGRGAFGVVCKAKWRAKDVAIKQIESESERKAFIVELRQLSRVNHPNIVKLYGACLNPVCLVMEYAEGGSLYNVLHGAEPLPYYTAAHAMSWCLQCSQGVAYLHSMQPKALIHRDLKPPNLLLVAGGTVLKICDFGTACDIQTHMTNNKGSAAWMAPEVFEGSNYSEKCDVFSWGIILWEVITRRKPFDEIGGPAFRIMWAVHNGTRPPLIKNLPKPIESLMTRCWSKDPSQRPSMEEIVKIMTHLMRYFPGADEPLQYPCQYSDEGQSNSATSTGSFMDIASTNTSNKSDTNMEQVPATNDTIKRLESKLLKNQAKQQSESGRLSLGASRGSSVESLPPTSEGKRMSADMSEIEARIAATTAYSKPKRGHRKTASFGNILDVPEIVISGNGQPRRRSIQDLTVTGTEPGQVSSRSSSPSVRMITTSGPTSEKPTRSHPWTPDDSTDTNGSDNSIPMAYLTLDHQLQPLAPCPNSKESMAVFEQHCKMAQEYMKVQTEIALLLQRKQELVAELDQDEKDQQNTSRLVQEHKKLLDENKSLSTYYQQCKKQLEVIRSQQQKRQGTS
Experimental: (A) Analysis of the activation of AMPK in wildtype (WT) and the complementation of Gal9 in Gal9-knockout (Gal9KO) HEK293A cells treated with 100 μM GPN in full medium for 1 h. AMPK activity was monitored by immunoblotting analysis of AMPKα (T172) and acetyl-CoA carboxylase (ACC, S79) phosphorylation (phosphorylated AMPKα (T172) and ACC (S79) relative to total AMPKα and ACC respectively). (B) HEK293T cells transfected with scrambled siRNA (Scr) or Gal9 siRNA (Gal9KD) were treated with 2 mM LLOMe in full medium for 1 h, and the cell lysates were analyzed for phosphorylation of indicated proteins. Data, means±SEM, n=3, *p<0.05, ANOVA. (C) HEK293T cells overexpressing FLAG-Gal9 were treated with 2 mM LLOMe in full medium for 1 h. Cell lysates were analyzed for the indicated proteins. Data, means±SEM, n=3, *p<0.05, ANOVA. (D) Immunoprecipitation analysis of the interactions between galectins and TAK1. HEK293T cells overexpressing FLAG-tagged galectins and GFP-tagged TAK1 were subjected to anti-FLAG immunoprecipitation followed by immunoblotting for GFP-tagged TAK1. (E) Schematic diagram of Gal9 domains and deletion constructs. (F) HEK293T cells overexpressing FLAG-tagged full-length or truncated Gal9 and GFPAMPK were subjected to anti-FLAG immunoprecipitation, followed by immunoblotting for GFP-AMPK. (G) HEK293T cells overexpressing FLAG-tagged full-length or truncated Gal9 and GFP-TAK1 were subjected to anti-FLAG immunoprecipitation, followed by immunoblotting for GFP-TAK1. (H) Analysis of the activation of AMPK in HEK293T cells subjected to knockdowns as indicated treated with 100 μM GPN in full medium for 1 h. AMPK activity was monitored by immunoblotting analysis of AMPKα (T172) and acetyl-CoA carboxylase (ACC, S79) phosphorylation (phosphorylated AMPKα (T172) and ACC (S79) relative to total AMPKα and ACC respectively). Cells transfected with scrambled siRNA were as control (Scr). […]

mTOR, Raptor, RagA, p14 = test: APEX2 proximity biotinylation with streptavidin enrichment and immunoblotting in HEK293T cells; assay type: cell-based; details: APEX2-galectin fusions
Experimental: (A) Analysis of the puncta formation of galectins in response to GPN. HeLa cells overexpressing YFP-fused with the indicated galectins were treated with 100 μM GPN or without (Ctrl) in full medium for 1 h and galectin puncta were quantified by HC. […] White masks, algorithm defined cell boundaries (primary objects); green masks, computer-identified galectins puncta (target objects). Data, means±SEM, n≥3 independent experiments (500 primary objects counted per well; ≥5 wells/sample per each experiment); *p<0.05, **p<0.01, † p≥0.05, ANOVA. (B) Immunoprecipitation analysis of the interactions between galectins and mTOR or RagA GTPase. HEK293T cells overexpressing FLAG-tagged galectins were subjected to anti-FLAG immunoprecipitation followed by immunoblotting for endogenous mTOR or RagA. (C) Immunoprecipitation analysis of interactions between Gal8 and mTOR protein complexes in response to GPN treatment. THP-1 cells not treated or treated with 100 μM GPN in full medium for 1 h were subjected to immunoprecipitation with anti-Gal8 antibody, followed by immunoblotting for endogenous RagA, p14, mTOR or Raptor. (D) Analysis of the proximity of Gal8 to mTOR and other proteins in mTOR complexes in response to GPN. Biotinylated proteins from HEK293T cell expressing APEX2-vector or APEX2-Gal8, after GPN and biotin phenol (BP) treatment were affinity-enriched by binding to streptavidin-beads, and samples were analyzed by immunoblotting analysis for endogenous RagA, p14, mTOR or Raptor. Data, means±SEM, (n=3), **p<0.01, ANOVA. (E) Immunoprecipitation analysis of the interactions between Gal8 and RagA GTPase and its mutants. Lysates of HEK293T cells overexpressing FLAG-Gal8 and HA-tagged RagA proteins (RagAWT, RagAT21L or RagAQ66L) were subjected to anti-FLAG immunoprecipitation, followed by immunoblotting for HA-tagged RagA proteins. (F) Immunoprecipitation analysis of the interactions between Gal8 and RagC GTPase and its mutants. HEK293T cells overexpressing FLAG-Gal8 and HA-tagged RagC proteins (RagCWT, RagCS75L or RagCQ120L) lysates were subjected to anti-FLAG immunoprecipitation, followed by immunoblotting for HA-tagged RagC proteins.
HEK293T cells transfected with pJJiaDEST-APEX2 or pJJiaDEST-APEX2-Gal8 were incubated with 100 μM GPN (Cayman Chemicals) in full medium for 1 h (confluence of cells remained at 70-80%). Cells were next incubated in 500 μM biotin-phenol (AdipoGen) in full medium for the last 30 min of GPN incubation. A 1 min pulse with 1 mM H2O2 at room temperature was stopped with quenching buffer (10 mM sodium ascorbate, 10 mM sodium azide and 5 mM Trolox in Dulbecco's Phosphate Buffered Saline (DPBS)). All samples were washed twice with quenching buffer, and twice with DPBS.
For immunoblotting analysis, cell pellets were lysed with 500 μL ice-cold RIPA lysis buffer (ThermoFisher Scientific) with protease inhibitor cocktail (Roche), 1 mM PMSF (sigma), 10 mM sodium ascorbate, 10 mM sodium azide and 5 mM Trolox, gently pipetted and then the incubated for 30 min. The lysates were clarified by centrifugation at 13,000 rpm for 5 min, followed by measuring protein concentrations using a Pierce BCA Protein Assay kit, with freshly made bovine serum albumin (BSA) solutions as standards. Streptavidin-coated magnetic beads (ThermoFisher Scientific) were washed with RIPA lysis buffer. 3 mg of each sample was mixed with 100 μL of streptavidin beads. […] 15 μL of each sample was separated by SDS-PAGE and analyzed by Western blot using indicated antibodies.

AMPK = AMPK activation by immunoblotting of phosphorylated AMPKα, ACC and ULK1 in HEK293A cells; assay type: cell-based; details: Gal9 KO HEK293A, 1 μM oligomycin 1 h
Gal8 and Gal9 = test: Galectin puncta formation by high-content microscopy in HeLa cells; assay type: cell-based; details: HeLa cells overexpressing GFP-Gal8 or GFP-Gal9, 100 μM, 1 h full medium
Experimental: (A) Analysis of the puncta formation of galectins in response to GPN. HeLa cells overexpressing YFP-fused with the indicated galectins were treated with 100 μM GPN or without (Ctrl) in full medium for 1 h and galectin puncta were quantified by HC. […] White masks, algorithm defined cell boundaries (primary objects); green masks, computer-identified galectins puncta (target objects). Data, means±SEM, n≥3 independent experiments (500 primary objects counted per well; ≥5 wells/sample per each experiment); *p<0.05, **p<0.01, † p≥0.05, ANOVA. (B) Immunoprecipitation analysis of the interactions between galectins and mTOR or RagA GTPase. HEK293T cells overexpressing FLAG-tagged galectins were subjected to anti-FLAG immunoprecipitation followed by immunoblotting for endogenous mTOR or RagA. (C) Immunoprecipitation analysis of interactions between Gal8 and mTOR protein complexes in response to GPN treatment. […] Biotinylated proteins from HEK293T cell expressing APEX2-vector or APEX2-Gal8, after GPN and biotin phenol (BP) treatment were affinity-enriched by binding to streptavidin-beads, and samples were analyzed by immunoblotting analysis for endogenous RagA, p14, mTOR or Raptor. […]
(A) HC analysis of the puncta of galectins in response to chloroquine, Bafilomycin A1 and GPN. HeLa cells overexpressing GFP-Gal8 or GFP-Gal9 were treated with 100 μM chloroquine (CQ), […] (BAF) or 100 μM GPN in full medium for 1 h, and the puncta of GFP-Gal8 or GFP-Gal9 were quantified by HC. […] Data, means±SEM, n≥3 independent experiments (500 primary objects counted per well; ≥5 wells/sample per each experiment), † p≥0.05, **p<0.01, ANOVA. […] HeLa cells expressing GFP-Gal8 were treated with 100 μM GPN in full medium for 1 h, and the overlap between GFP-Gal8 and LAMP2 were quantified by HC. […] Data, means±SEM, n≥3 independent experiments (500 primary objects counted per well; ≥5 wells/sample per each experiment), **p<0.01, ANOVA. […]

## Gal3: cytosolic lectin, galectin-3, used as comparator
AMPKα
  AMPKα in complexes (co-IP) with galectin: not detected
TAK1
  interaction with TAK1: not
mTOR, Raptor, RagA, p14
  mTOR, Raptor and RagA found in the proximity of the galectin: not in the proximity

## CC[C@H]1/C=C/C=C/C[C@@H](C)[C@H](O)[C@@](C)(O)C(=O)[C@@H](C)[C@H](O)[C@@H](C)C(=O)[C@@H](C)[C@H](O)[C@@H](C)/C=C/C(=O)O[C@@H]2[C@H](C)[C@H](CC1)O[C@]1(CC[C@H](C)[C@H](C[C@@H](C)O)O1)[C@H]2C [oligomycin]
AMPK
  AMPK phosphorylation in Gal9 KO cells: increased AMPK phosphorylation

## CCN(CC)CCCC(C)Nc1ccnc2cc(Cl)ccc12 (stereo not drawn) [chloroquine]
Gal8 and Gal9
  Gal8 and Gal9 puncta formation: not upon treatment

## CO/C1=C\C(C)=C\[C@@H](C)[C@@H](O)[C@@H](C)C/C(C)=C/C=C/[C@H](OC)[C@@H]([C@@H](C)[C@@H](O)[C@H](C)[C@@]2(O)C[C@@H](O)[C@H](C)[C@@H](C(C)C)O2)OC1=O [Bafilomycin A 1, Bafilomycin A1]
Gal8 and Gal9
  Gal8 and Gal9 puncta formation: not upon treatment
